In ChEMBL document CHEMBL5104092, “An insight into the recent development of the clinical candidates for the treatment of malaria and their target proteins” (Eur J Med Chem, 2021):

Key:
Plasmodium falciparum [1] = experiment: Antimalarial activity against chloroquine sensitive Plasmodium falciparum 3D7 incubated for 72 hrs by SYBR green I assay; type: functional, organism-based; details: 3D7, 72 h
Plasmodium falciparum [2] = experiment: Antimalarial activity against Plasmodium falciparum Dd2; type: functional, organism-based
HepG2 = experiment: Cytotoxicity against human HepG2 cells; type: functional, cell-based
A549 = experiment: Cytotoxicity against human A549 cells; type: functional
[3] = Cytotoxicity against human HEK293 cells; type: toxicity, cell-based
Plasmodium falciparum [4] = experiment: Antimalarial activity against multidrug resistant Plasmodium falciparum Dd2 incubated for 72 hrs by malaria SYBR green I nucleic acid staining dye based fluorescence assay; type: functional, organism-based; details: Dd2, 72 h
Plasmodium falciparum [5] = experiment: Antimalarial activity against chloroquine sensitive Plasmodium falciparum 3D7 incubated for 72 hrs by malaria SYBR green I nucleic acid staining dye based fluorescence assay; type: functional, organism-based; details: 3D7, 72 h
Plasmodium falciparum [6] = experiment: Antimalarial activity against multidrug resistant Plasmodium falciparum K1 incubated for 72 hrs by malaria SYBR green I nucleic acid staining dye based fluorescence assay; type: functional, organism-based; details: K1, 72 h
Plasmodium falciparum [7] = experiment: Antimalarial activity against chloroquine resistant Plasmodium falciparum K1 infected in human erythrocytes by microplate fluorometric detection method; type: functional, organism-based
Plasmodium falciparum [8] = experiment: Antimalarial activity against chloroquine sensitive Plasmodium falciparum T96 infected in human erythrocytes by microplate fluorometric detection method; type: functional, organism-based
Plasmodium falciparum [9] = experiment: Antimalarial activity against chloroquine resistant Plasmodium falciparum Dd2 incubated for 72 hrs by malaria SYBR green I based assay; type: functional, organism-based; details: Dd2, 72 h

With `C=C(c1ccc(C)cc1C)C1COC2(CCC(Nc3ccccc3)CC2)OO1` (stereo unspecified) the IC50 (Plasmodium falciparum [1]) was 19.6 nM.

In the case of `COc1ccc(NC(=O)N2CCCCN3C[C@H](c4ccc(C#Cc5ccccc5)cc4)[C@@H]3C2)cc1`, the EC50 (Plasmodium falciparum [2]) is reported as 15 nM, the CC50 (HepG2) is reported as over 50000 nM and the CC50 (A549) is reported as 38000 nM. It also gave a CC50 [3] of over 50000 nM.

Compound `C[C@@H]1CCC2[C@@H](C)[C@H](OC(=O)CCC(=O)NCCNc3ccnc4cc(Cl)ccc34)O[C@@H]3O[C@]4(C)CC[C@@H]1[C@@]23OO4` (stereo partly specified) has an EC50 (Plasmodium falciparum [4]) of 1 nM, an EC50 (Plasmodium falciparum [5]) of 2.7 nM and an EC50 (Plasmodium falciparum [6]) of 0.78 nM.

Compound `COC(=O)CC[C@@H](C)[C@H]1CCC2C3CC[C@@H]4CC5(CC[C@]4(C)C3C[C@H](OC(C)=O)[C@@]21C)OOC(C)(C)OO5` (stereo partly specified) has an EC50 (Plasmodium falciparum [7]) of 3 nM and an EC50 (Plasmodium falciparum [8]) of 131 nM.

Work on `CN(C)CCNc1cc(/C=C/c2ccncc2)nc2ccccc12` yielded an IC50 (Plasmodium falciparum [9]) of 33 nM.
